Test results as given in patent publication EP0612246B1, “PHARMACEUTICAL COMPOSITIONS OF GALLIUM COMPLEXES OF 3-HYDROXY-4-PYRONES” (BERNSTEIN, Lawrence Richard, priority 1991, dated 1993).

Legend:
[1] = format: physicochemical
Method: The stability of the neutral 3:1 maltol:gallium complex was studied in aqueous solutions at various pH values. The complex was studied at two concentrations in double distilled deionized water: 2.5 X 10^-6 M and 1.0 X 10^-2 M. The pH was adjusted by adding either 1N HCl or 1N Na2CO3. The stability of the complex was determined using ultraviolet spectroscopy over the region 200-450 nm at 25°C. Several absorption peaks are observed in this range, including those at about 212-217 nm, 248 nm, 273 nm, 318 nm, and 385 nm. An isobesic point occurs over much of the pH range at about 290 nm. In the very dilute solutions (2.5 X 10^-6 M), the neutral 3:1 complex appears to be stable from about pH 4.5 to 9.5. For the less dilute solutions (1.0 X 10^-2 M), the determination was more difficult due to the very high absorbance.

[2] = Oral bioavailability study in rabbits: serum gallium by graphite furnace atomic absorption after oral gavage; format: in vivo, New Zealand white rabbits; conditions: for Mean gallium content of rabbit serum: 10 mg elemental gallium per kg, fasted 18 hours, 3 animals
Method: A test of the oral bioavailability of the 3:1 ethyl maltol:gallium complex in rabbits was conducted. In this test, the complex was given to rabbits and compared to a solution of gallium nitrate. Six female New Zealand white rabbits weighing between 2.68 and 2.91 kg were used, and were not fed for 18 hours before starting the experiment. A suspension of the 3:1 gallium ethyl maltol complex in double distilled water was prepared with a concentration of 10 mg elemental gallium per 4 ml of suspension. […] A small amount of solid sodium carbonate was added to the latter solution to bring the pH up to about 6. Each of the two solutions was given to three rabbits by oral gavage (through a tube inserted through the mouth to the stomach) in the amount of 4 ml per kg of body weight. The stomach tubes were flushed by three ml of water following administration of the solutions.
Six ml of blood was taken from each rabbit at 1 hour, 2 hours, 4 hours, 8 hours, and 24 hours following administration of the solutions, and the serum separated and frozen. Control samples of blood were taken 24 hours earlier. The frozen serum samples were then sent to an independent testing laboratory for determination of the gallium contents by graphite furnace atomic absorption analysis. The testing laboratory received numbered serum samples, and never had any knowledge of the experimental conditions used to produce the samples. Due to uncertainties in the analytical procedures for gallium in serum, the relative proportions of gallium in the serum samples are considered more significant than the actual reported concentrations.
It is important to note that no attempt was made to counteract the adverse effects of the 3:1 gallium ethyl maltol complex being exposed to the acidic conditions of the stomach. This study should therefore be considered to give a minimal value for the oral bioavailability of the gallium ethyl maltol complex compared to gallium nitrate.

Cc1occc(=O)c1[O-].Cc1occc(=O)c1[O-].Cc1occc(=O)c1[O-].[Ga+3] [gallium maltol]
stability region (pH) [1]: very similar to that of the highly dilute solution, possibly slightly wider

gallium nitrate
Mean gallium content of rabbit serum ([2]; 1 hour after oral gavage): 51 ng/mL
Mean gallium content of rabbit serum ([2]; 2 hours after oral gavage): 99 ng/mL
Mean gallium content of rabbit serum ([2]; 4 hours after oral gavage): 118 ng/mL
Mean gallium content of rabbit serum ([2]; 8 hours after oral gavage): 103 ng/mL
Mean gallium content of rabbit serum ([2]; 24 hours after oral gavage): 64 ng/mL

CCc1occc(=O)c1[O][Ga]([O]c1c(CC)occc1=O)[O]c1c(CC)occc1=O [gallium ethyl maltol]
absorption compared to gallium nitrate of equal volume and gallium concentration ([2]; rabbit, in vivo, po): significantly higher amounts
